According to patent publication US9387246B2, “Treatment methods for rheumatoid arthritis” (priority 2013, dated 2016):
Like-named read-outs stand apart in the source and are kept apart here.

Experiments:
[1] = system: Rheumatoid arthritis patients; assay: Treatment outcome (effectiveness, clinical course) of treatment methods (Example 2); type: in vivo, human
Description: (§1) The patients were treated with the selected treatment methods for at least five months and the post-treatment biomarker levels and VECTRA DA Score were determined by VECTRA® DA test along with CRP level and ESR. The change is VECTRA DA Score, CRP level and ESR was determined to determine the change in disease activity and effectiveness of the selected treatment method.

[2] = system: Rheumatoid arthritis patients; assay: Change in VECTRA DA Score after treatment, longer duration (Example 3); type: in vivo, human
Description: Sixteen rheumatoid arthritis patients were selected for treatment by treatment methods that were selected using the algorithm disclosed herein. Some patients were the same as the patients discussed under Example 2. Example 3, however, tracks patients' responses to treatment for a longer duration and uses VECTRA DA Score to determine effectiveness of the treatment.
VECTRA® DA test was conducted for each patient to determine serum levels of the all the biomarkers and VECTRA DA Score in each patient before treatment. The collection of patients closely resembles the random patient population available nationwide as shown by a comparison of the distribution of VECTRA DA Scores in FIG. 6, as noted under Example 2.
The patients were treated with the selected treatment methods and the post-treatment biomarker levels and VECTRA DA Score were determined by VECTRA® DA test. The change is VECTRA DA Score was determined to determine the change in disease activity and effectiveness of the selected treatment method.
The treatment method (one method or a combination of methods) was determined to be effective when the post-treatment disease activity was lower than the pre-treatment disease activity in the patient: when VECTRA DA Score was lower than the pre-treatment VECTRA DA Score. Specifically, the treatment method was determined to be effective when the post-treatment disease activity was at least 20% lower than the pre-treatment disease activity, or when the VECTRA DA Score is decreased to a lower disease activity level after the treatment (i.e., from high to moderate, or high to low, or moderate to low).

[3] = system: Rheumatoid arthritis patients; type: in vivo, human
Source text: A treatment method administered to a patient may be a combination of one or more treatment methods.

[4] = system: Rheumatoid arthritis patients; assay: VECTRA DA test: serum levels of biomarkers, % elevation over control (InFoRM study); type: in vivo, human
Source text: (§2) VECTRA® DA test is a multi-biomarker disease activity (MBDA) blood test sold by Crescendo Bioscience. The test provides a quantitative assessment of rheumatoid arthritis disease activity in patients by using twelve protein biomarkers—Vascular Cell Adhesion Molecule 1 (VCAM-1), Epidermal Growth Factor (EGF), Vascular Endothelial Growth Factor A (VEGF-A), Interleukin-6 (IL-6), Tumor Necrosis Factor Receptor Type 1 (TNFR1), Matrix Metalloproteinase-1 (MMP-1), Matrix Metalloproteinase-3 (MMP-3), YKL-40, Leptin, Resistin, Serum Amyloid A (SAA), and C-Reactive Protein (CRP). The twelve biomarkers in VECTRA® DA test are relevant to key aspects of the pathophysiology of RA. Li et al., Curr. Med. Res. & Opin. 29(1): 85-92 (2013). The test measures the concentrations of the biomarkers and provides the concentrations and percentile (RA percentile) value for each biomarker.
The VECTRA DA MBDA test uses Meso Scale Discovery (MSD, Gaithersburg, Md., USA) sandwich immunoassay electrochemiluminescent technology to measure biomarker levels. Eastman et al., J. of Pharmaceutical and Biomedical Analysis 70: 415-424 (2012). In the immunoassay, capture antibodies are spotted on carbon electrodes in a planar array and detection antibodies are labeled with an electrochemiluminescent ruthenium reporter. Id. Upon electrical stimulation, light is produced from reporter molecules bound to the electrode to determine biomarker concentration.

VCAM-1 = conditions: literature 1990-2012, ACR abstracts 2006-2013; cited from earlier work
VEGF-A = conditions: literature 1990-2012, ACR abstracts 2006-2013; cited from earlier work
IL-6 = conditions: literature 1990-2012, ACR abstracts 2006-2013; cited from earlier work
TNFR1 = system: TNFR1; design: key: Y: biomarkers that are known to be positively affected by a treatment method (i.e., biomarkers that are known to have a favorable response to a treatment method); N: biomarkers that are not known to be positively affected by a treatment method (i.e., biomarkers that are known to have an unfavorable response to a treatment method); biomarkers that are known to be positively affected by a ORENCIA, the brand name of Atabacept; conditions: literature 1990-2012, ACR abstracts 2006-2013; cited from earlier work
MMP-1 = conditions: literature 1990-2012, ACR abstracts 2006-2013; cited from earlier work
MMP-3 = conditions: literature 1990-2012, ACR abstracts 2006-2013; cited from earlier work
YKL-40 = conditions: literature 1990-2012, ACR abstracts 2006-2013; cited from earlier work
Leptin = conditions: literature; Leptin usable as biomarker only in patients with 15% or less body fat; cited from earlier work
Resistin = conditions: literature 1990-2012, ACR abstracts 2006-2013; cited from earlier work
SAA = conditions: literature 1990-2012, ACR abstracts 2006-2013; cited from earlier work
CRP = conditions: literature 1990-2012, ACR abstracts 2006-2013; cited from earlier work
[5] = system: Rheumatoid arthritis patients; assay: Change in VECTRA DA Score after treatment (Example 2); type: in vivo, human
Source text: as §2, with “biomarker. […]” for “biomarker.”
as §1

[6] = Patient 9, ACTEMRA from May 2012 not algorithm-selected, MTX added October 2012, based on ESR and CRP level
[7] = Patient 10, MTX (November 2011) and ORENCIA (August-December 2012) not algorithm-selected, HUMIRA December 2012-June 2013, based on VECTRA DA Score

## CN(Cc1cnc2nc(N)nc(N)c2n1)c1ccc(C(=O)N[C@@H](CCC(=O)O)C(=O)O)cc1 [MTX, Methotrexate]
[1]; Patient 5, MTX alone from March 2012 not algorithm-selected, MTX and CIMZIA October 2012-June 2013, based on Sedimentation Rate and CRP Level
  Treatment Outcome: Not effective
[1]; Patient 8, MTX not algorithm-selected, ORENCIA December 2012-June 2013, based on VECTRA DA score
  Treatment Outcome: Not effective
[1]; [6]
  Treatment Outcome: Effective,
[1]; [7]
  Treatment Outcome: Not effective
[2]; Patient 5, August 2012
  Arthritis activity class of VECTRA DA Score: high (a VECTRA DA Score of >44 reflects high disease activity)
[2]; Patient 5, August 2012 since March 2012 (5 months treatment only)
  VECTRA DA Score increased by: by 7 since
[2]; Patient 10, April 2012
  Arthritis activity class of VECTRA DA Score: (moderate) (a VECTRA DA Score of >29 and ≦44 reflects moderate disease activity)
[2]; Patient 10, April 2012, Methotrexate 10 mg/week
  VECTRA DA Score: Score: 33
[3]; human, in vivo
  Adverse event for which dose was reduced to 10 mg/week: hair loss, April 2014
[3]; patient 16, January 2014
  Treatment effectiveness (reason for discontinuation / earlier trial): without success
[4]; Patient 5, August 2012
  CRP elevated level: 67%
  IL-6 elevated level: 79%
  Leptin elevated level: 97%
  MMP-1 elevated level: 79%
  MMP-3 elevated level: 95%
  Resistin elevated level: 82%
  SAA elevated level: 92%
  TNF-R1 elevated level: 79%
  VCAM-1 elevated level: 97%
  VEGF-A elevated level: 48%
  YKL-40 elevated level: 94%
[4]; Patient 10, April 2012
  SAA elevated level: 65%
  VEGF-A elevated level: 59%
  YKL-40 elevated level: 72%
VCAM-1
  VCAM-1 positively affected by treatment method: N
VEGF-A
  VEGF-A positively affected by treatment method: Y
IL-6
  IL-6 positively affected by treatment method: Y
TNFR1
  TNFR1 positively affected by treatment method: N
MMP-1
  MMP-1 positively affected by treatment method: N
MMP-3
  MMP-3 positively affected by treatment method: Y
YKL-40
  YKL-40 positively affected by treatment method: N
Leptin
  Leptin positively affected by treatment method: N
Resistin
  Resistin positively affected by treatment method: N
SAA
  SAA positively affected by treatment method: Y
CRP
  CRP positively affected by treatment method: Y

## Adalimumab [HUMIRA (TNF)]
[5]; Patient 10, treatment December 2012-June 2013, score May 2013
  VECTRA DA Score - Decreased by: Decreased by 22
[1]; [7]
  Treatment Outcome: Effective,

## Tocilizumab [TOCL]
[5]; Patient 6, treatment August 2012-June 2013, score February 2013
  VECTRA DA Score - Decreased by: Decreased by 24
[1]; [6]
  Treatment Outcome: Not effective
[2]; Patient 6, February 2013
  Arthritis activity class of VECTRA DA Score: high (a VECTRA DA Score of >44 reflects high disease activity)
[2]; Patient 6, October 2012
  Arthritis activity class of VECTRA DA Score: high (a VECTRA DA Score of >44 reflects high disease activity)
[2]; Patient 6, October 2012, ACTEMRA 4 mg/kg
  VECTRA DA Score: 54
[3]; Patient 6
  Treatment Outcome: Effective, based
[3]; Patient 6, while on ACTEMRA
  Conventional markers of inflammation - ESR and CRP level: normalized
[3]; in vivo
  Adverse reaction: allergic reaction
  Toxicity for which the treatment was excluded: bone marrow
[4]; Patient 6, February 2013
  IL-6 elevated level: >99%
  MMP-3 elevated level: 61%
  Resistin elevated level: 70%
[4]; Patient 6, October 2012
  IL-6 elevated level: >99%
  MMP-3 elevated level: 88%
  Resistin elevated level: 57%
  TNF-R1 elevated level: 45%
VCAM-1
  VCAM-1 positively affected by treatment method: N
VEGF-A
  VEGF-A positively affected by treatment method: Y
IL-6
  IL-6 positively affected by treatment method: Y
TNFR1
  TNFR1 positively affected by treatment method: N
MMP-1
  MMP-1 positively affected by treatment method: Y
MMP-3
  MMP-3 positively affected by treatment method: Y
YKL-40
  YKL-40 positively affected by treatment method: Y
Leptin
  Leptin positively affected by treatment method: N
Resistin
  Resistin positively affected by treatment method: N
SAA
  SAA positively affected by treatment method: Y
CRP
  CRP positively affected by treatment method: Y
